The values that follow come from ChEMBL document CHEMBL2440023, “Biological activity of 3-chloro-azetidin-2-one derivatives having interesting antiproliferative activity on human breast cancer cell lines” (Bioorg Med Chem Lett, 2013).

The subject of data set [1] is SK-BR-3. Description: Cytotoxicity against ER-negative human SKBR3 cells assessed as growth inhibition at 10 to 20 uM after 72 hrs by MTT assay. In kind it is functional, cell-based.
Data set [2] is described as follows: Stability of the compound in simulated gastric/intestinal fluid assessed as compound remaining at 10 mM after 6 hrs by UV/Vis spectroscopic analysis in presence of porcine pepsin and pancreatin relative to control. To be noted: pig; read-out: Stability. Type of data set: physicochemical.
The subject of a further data set is NIH3T3. Put plainly: Cytotoxicity against mouse 3T3 cells assessed as cell viability at 5 to 20 uM after 72 hrs by MTT assay. In kind it is cell-based. To be noted: nih3t3, 72 h. A general note: Formazan colour is commonly taken as a measure of viable cells.
Data set [3] concerns MCF7. Put plainly: Cytotoxicity against ER-positive human MCF7 cells assessed as growth inhibition after 72 hrs by MTT assay. Type of data set: functional, cell-based. The conditions noted are these: for IC50: MCF7, 72 h.
Data set [4] deals with MCF7. Description: Cytotoxicity against ER-positive human MCF7 cells assessed as growth inhibition at 20 uM after 72 hrs by MTT assay. Type of data set: functional, cell-based.
The subject of data set [5] is MCF7. Description: Cytotoxicity against ER-positive human MCF7 cells assessed as growth inhibition at 1 uM after 72 hrs by MTT assay. Type of data set: functional, cell-based.
For data set [6], the system named is SK-BR-3. Description: Cytotoxicity against ER-negative human SKBR3 cells assessed as growth inhibition at 20 uM after 72 hrs by MTT assay. Type of data set: functional, cell-based.
Data set [7] deals with MCF7. Put plainly: Cytotoxicity against ER-positive human MCF7 cells assessed as growth inhibition at 10 to 20 uM after 72 hrs by MTT assay. Type of data set: functional, cell-based.
The subject of data set [8] is SK-BR-3. Description: Cytotoxicity against ER-negative human SKBR3 cells assessed as growth inhibition after 72 hrs by MTT assay. In kind it is functional, cell-based. The conditions noted are these: for IC50: SK-BR-3, 72 h.

The source made the active and inactive calls. No cut-off for these calls is given here.

Turning to `O=C1C(Cl)C(c2ccccc2)N1c1ccc(Cl)cc1` (stereo unspecified), the “growth inhibition (GI)” value with SK-BR-3 [1] is “Active”. Also, the remaining at 6 h, 10000 µM in data set [2] was 80%. For the same compound, in the data set on NIH3T3, the Activity result is reported as “Non-toxic”. Besides, in the data set on MCF7 [3], the “growth inhibition (GI)” value is “Dose-dependent effect”.

Turning to `O=C1C(Cl)C(c2ccc(Cl)cc2)N1c1ccccc1` (stereo unspecified), the “growth inhibition (GI)” value with SK-BR-3 [1] and in the data set with MCF7 [4] was “Active” each time. Also, the remaining at 6 h, 10000 µM in data set [2] was 83%. For the same compound, the Activity result with NIH3T3 is on record as “Non-toxic”.

`O=C1C(Cl)C(c2ccccc2)N1c1ccccc1` (stereo unspecified): the “growth inhibition (GI)” value with SK-BR-3 [1] was “Active”. Further, in data set [2], the remaining at 6 h, 10000 µM is 78%. In addition, the “growth inhibition (GI)” value in the data set on MCF7 [5] is “inactive”. Besides, in the data set with NIH3T3, the Activity result is reported as “Non-toxic”.

For `Cc1ccc(C2C(Cl)C(=O)N2c2ccc(C)cc2)cc1` (stereo unspecified), in the data set with SK-BR-3 [6], the “growth inhibition (GI)” value is “Active”. For the same compound, the “growth inhibition (GI)” value in the data set on MCF7 [7] is “inactive”. Besides, in data set [2], the remaining at 6 h, 10000 µM is 79%. Further, the Activity result with NIH3T3 is given as “Non-toxic”.

With `O=C1C(Cl)C(c2ccc(Br)cc2)N1c1ccc(Br)cc1` (stereo unspecified), in data set [2], the remaining at 6 h, 10000 µM is 87%. Further, the Activity entry in the data set with NIH3T3 is recorded as “Non-toxic”. Further, in the data set on SK-BR-3 [8], the “growth inhibition (GI)” value was “Dose-dependent effect” and the concentration for half-maximal inhibition (IC50) was determined as 11.1 µM. Besides, in the data set with MCF7 [3], the “growth inhibition (GI)” value was “Dose-dependent effect” and the IC50 turned out to be 16.7 µM.

Take `O=C1C(Cl)C(c2ccc(Cl)cc2)N1c1ccc(I)cc1` (stereo unspecified): the remaining at 6 h, 10000 µM in data set [2] is 70%. Moreover, the Activity result in the data set on NIH3T3 was “Non-toxic”. Also, in the data set on SK-BR-3 [8], the “growth inhibition (GI)” value is “Dose-dependent effect” and the IC50 is 9.51 µM. Besides, in the data set on MCF7 [3], the “growth inhibition (GI)” value was “Dose-dependent effect” and the half-inhibitory concentration (IC50) stood at 11.8 µM.

For `Oc1ccc(/C=C\c2cc(O)cc(O)c2)cc1` [CIS-RESVERATROL], the remaining at 6 h, 10000 µM in data set [2] is 31%. Besides, the half-maximal inhibitory concentration (IC50) amounted to 41.2 µM in the data set on SK-BR-3 [8] and 28.4 µM in the data set with MCF7 [3].

The IC50 is the concentration that gives 50% inhibition.
